# Data from PMC5803145, “Study on the Structural Effect of Maltoligosaccharides on Cytochrome c Complexes Stabilities by Native Mass Spectrometry” (Natural Products and Bioprospecting, 2018).
# Biological target: T1, Cytochrome c (Cyt c) from equine / horse heart (Equus caballus, UniProt P00004)
# T1 construct: gene CYCS; mature heme-containing protein
# Experiment: native ESI-MS, deconvoluted peak ratios
# Format: binding
# Settings: aqueous solution, 0.5 uM Cyt c, 3-7 uM ligand, room temperature, 1 h; stepwise constant of the 1:1 complex
# Source text: native ESI-MS, deconvoluted peak ratios on Cytochrome c (Cyt c) from equine / horse heart
# T1 sequence (P00004 2-105): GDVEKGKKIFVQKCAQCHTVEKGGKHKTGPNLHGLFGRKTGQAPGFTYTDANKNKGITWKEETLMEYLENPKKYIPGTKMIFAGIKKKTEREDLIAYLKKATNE
row,Compound,"Ka,1 (10^4 L mol^-1)"
1,"OC[C@H]1O[C@H](O[C@H]2[C@H](O)[C@@H](O)[C@@H](O[C@H]3[C@H](O)[C@@H](O)[C@@H](O[C@H]4[C@H](O)[C@@H](O)[C@@H](O[C@H]5[C@H](O)[C@@H](O)C(O)O[C@@H]5CO)O[C@@H]4CO)O[C@@H]3CO)O[C@@H]2CO)[C@H](O)[C@@H](O)[C@@H]1O (stereo partly drawn) [Mal V, maltopentaose]",2.654 x 10^4 (RSD 0.80%)
2,"OC[C@H]1O[C@H](O[C@H]2[C@H](O)[C@@H](O)C(O)O[C@@H]2CO)[C@H](O)[C@@H](O)[C@@H]1O (stereo partly drawn) [Mal II, maltose]",3.227 x 10^4 (RSD 2.9%)
3,"OC[C@H]1O[C@H](O[C@H]2[C@H](O)[C@@H](O)[C@@H](O[C@H]3[C@H](O)[C@@H](O)[C@@H](O[C@H]4[C@H](O)[C@@H](O)C(O)O[C@@H]4CO)O[C@@H]3CO)O[C@@H]2CO)[C@H](O)[C@@H](O)[C@@H]1O (stereo partly drawn) [Mal IV, maltotetraose]",3.279 x 10^4 (RSD 5.6%)

# Second part, the compound after the results:
row,"Ka,1 (10^4 L mol^-1)",Compound
1,3.842 x 10^4 (RSD 2.5%),"OC[C@H]1O[C@H](O[C@H]2[C@H](O)[C@@H](O)[C@@H](O[C@H]3[C@H](O)[C@@H](O)C(O)O[C@@H]3CO)O[C@@H]2CO)[C@H](O)[C@@H](O)[C@@H]1O (stereo partly drawn) [Mal III, maltotriose]"
2,2.438 x 10^4 (RSD 2.5%),"OC[C@H]1O[C@H](O[C@H]2[C@H](O)[C@@H](O)[C@@H](O[C@H]3[C@H](O)[C@@H](O)[C@@H](O[C@H]4[C@H](O)[C@@H](O)[C@@H](O[C@H]5[C@H](O)[C@@H](O)[C@@H](O[C@H]6[C@H](O)[C@@H](O)C(O)O[C@@H]6CO)O[C@@H]5CO)O[C@@H]4CO)O[C@@H]3CO)O[C@@H]2CO)[C@H](O)[C@@H](O)[C@@H]1O (stereo partly drawn) [Mal VI, maltohexaose]"
3,2.205 x 10^4 (RSD 1.6%),"OC[C@H]1O[C@H](O[C@H]2[C@H](O)[C@@H](O)[C@@H](O[C@H]3[C@H](O)[C@@H](O)[C@@H](O[C@H]4[C@H](O)[C@@H](O)[C@@H](O[C@H]5[C@H](O)[C@@H](O)[C@@H](O[C@H]6[C@H](O)[C@@H](O)[C@@H](O[C@H]7[C@H](O)[C@@H](O)C(O)O[C@@H]7CO)O[C@@H]6CO)O[C@@H]5CO)O[C@@H]4CO)O[C@@H]3CO)O[C@@H]2CO)[C@H](O)[C@@H](O)[C@@H]1O (stereo partly drawn) [Mal VII, maltoheptaose]"
